# Key:
# Test in all cases: viability relative to DMSO control (fraction); higher = less drug effect (more viable cells)
# Conditions in all cases: 48 h
# [1] = system: primary ALL patient cells (S048)
# How it was run: (§1)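 Primary mononuclear tumour cells (Ficoll-isolated from blood or bone marrow, or processed lymph node; fresh or cryopreserved) were plated at 4 × 10^4 cells per well in 384-well plates with pre-plated compounds at five concentrations, one well each. Medium was RPMI-1640 with penicillin/streptomycin, L-glutamine and human serum, at 37 °C and 5% CO2 for 48 h. Viability was read as CellTiter-Glo luminescence relative to the median of 16 inner DMSO wells.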
# [2] = system: primary AML patient cells (S002)
# How it was run: as §1
# [3] = system: primary AML patient cells (S011)
# How it was run: as §1
# [4] = system: primary AML patient cells (S019)
# How it was run: as §1
# [5] = system: primary AML patient cells (S021)
# How it was run: as §1
# [6] = system: primary AML patient cells (S025)
# How it was run: as §1
# [7] = system: primary AML patient cells (S037)
# How it was run: as §1
# [8] = system: primary AML patient cells (S055)
# How it was run: as §1
# [9] = system: primary AML patient cells (S081)
# How it was run: as §1
# [10] = system: primary AML patient cells (S089)
# How it was run: as §1
# [11] = system: primary AML patient cells (S091)
# How it was run: as §1
# [12] = system: primary DLBCL patient cells (S049)
# How it was run: as §1
# [13] = system: primary DLBCL patient cells (S076)
# How it was run: as §1
# [14] = system: primary FL patient cells (S022)
# How it was run: as §1
# [15] = system: primary MCL patient cells (S068)
# How it was run: as §1
# [16] = system: primary T-NHL patient cells (S058)
# How it was run: as §1
# [17] = system: primary T-PLL patient cells (S008)
# How it was run: as §1
smiles,measurement,setting,value
CO[C@H]1C[C@@H]2CC[C@@H](C)[C@@](O)(O2)C(=O)C(=O)N2CCCC[C@H]2C(=O)O[C@H]([C@H](C)C[C@@H]2CC[C@@H](OC(=O)C(C)(CO)CO)[C@H](OC)C2)CC(=O)[C@H](C)/C=C(\C)[C@@H](O)[C@@H](OC)C(=O)[C@H](C)C[C@H](C)/C=C/C=C/C=C/1C [Temsirolimus],viability,[1]; 0.032 µM,0.747
same,viability,[1]; 0.16 µM,0.706
same,viability,[1]; 0.8 µM,0.702
same,viability,[1]; 4 µM,0.748
same,viability,[1]; 20 µM,0.49
same,viability,[2]; 0.032 µM,0.755
same,viability,[2]; 0.16 µM,0.706
same,viability,[2]; 0.8 µM,0.702
same,viability,[2]; 4 µM,0.62
same,viability,[2]; 20 µM,0.44
same,viability,[3]; 0.032 µM,0.88
same,viability,[3]; 0.16 µM,0.805
same,viability,[3]; 0.8 µM,0.892
same,viability,[3]; 4 µM,0.84
same,viability,[3]; 20 µM,0.498
same,viability,[4]; 0.032 µM,0.909
same,viability,[4]; 0.16 µM,0.834
same,viability,[4]; 0.8 µM,0.915
same,viability,[4]; 4 µM,0.873
same,viability,[4]; 20 µM,0.739
same,viability,[5]; 0.032 µM,0.761
same,viability,[5]; 0.16 µM,0.846
same,viability,[5]; 0.8 µM,0.818
same,viability,[5]; 4 µM,0.737
same,viability,[5]; 20 µM,0.605
same,viability,[6]; 0.032 µM,0.914
same,viability,[6]; 0.16 µM,0.962
same,viability,[6]; 0.8 µM,0.883
same,viability,[6]; 4 µM,0.893
same,viability,[6]; 20 µM,0.754
same,viability,[7]; 0.032 µM,0.966
same,viability,[7]; 0.16 µM,0.903
same,viability,[7]; 0.8 µM,0.957
same,viability,[7]; 4 µM,0.931
same,viability,[7]; 20 µM,0.807
same,viability,[8]; 0.032 µM,0.919
same,viability,[8]; 0.16 µM,0.959
same,viability,[8]; 0.8 µM,0.957
same,viability,[8]; 4 µM,0.955
same,viability,[8]; 20 µM,0.812
same,viability,[9]; 0.032 µM,0.885
same,viability,[9]; 0.16 µM,0.884
same,viability,[9]; 0.8 µM,0.926
same,viability,[9]; 4 µM,0.969
same,viability,[9]; 20 µM,0.869
same,viability,[10]; 0.032 µM,0.752
same,viability,[10]; 0.16 µM,0.831
same,viability,[10]; 0.8 µM,0.673
same,viability,[10]; 4 µM,0.684
same,viability,[10]; 20 µM,0.719
same,viability,[11]; 0.032 µM,0.697
same,viability,[11]; 0.16 µM,0.686
same,viability,[11]; 0.8 µM,0.659
same,viability,[11]; 4 µM,0.663
same,viability,[11]; 20 µM,0.611
same,viability,[12]; 0.032 µM,1.02
same,viability,[12]; 0.16 µM,0.986
same,viability,[12]; 0.8 µM,0.987
same,viability,[12]; 4 µM,0.966
same,viability,[12]; 20 µM,0.794
same,viability,[13]; 0.032 µM,0.821
same,viability,[13]; 0.16 µM,0.753
same,viability,[13]; 0.8 µM,0.805
same,viability,[13]; 4 µM,0.765
same,viability,[13]; 20 µM,0.616
same,viability,[14]; 0.032 µM,0.962
same,viability,[14]; 0.16 µM,0.821
same,viability,[14]; 0.8 µM,0.966
same,viability,[14]; 4 µM,0.917
same,viability,[14]; 20 µM,0.569
same,viability,[15]; 0.032 µM,0.604
same,viability,[15]; 0.16 µM,0.614
same,viability,[15]; 0.8 µM,0.608
same,viability,[15]; 4 µM,0.738
same,viability,[15]; 20 µM,1.01
same,viability,[16]; 0.032 µM,0.902
same,viability,[16]; 0.16 µM,0.809
same,viability,[16]; 0.8 µM,0.904
same,viability,[16]; 4 µM,0.873
same,viability,[16]; 20 µM,0.697
same,viability,[17]; 0.032 µM,0.982
same,viability,[17]; 0.16 µM,0.958
same,viability,[17]; 0.8 µM,0.941
same,viability,[17]; 4 µM,0.959
same,viability,[17]; 20 µM,0.878
Nc1nc(F)nc2c1ncn2[C@@H]1O[C@H](CO)[C@@H](O)[C@@H]1O [Fludarabine],viability,[1]; 0.016 µM,0.991
same,viability,[1]; 0.08 µM,0.881
same,viability,[1]; 0.4 µM,0.337
same,viability,[1]; 2 µM,0.0558
same,viability,[1]; 10 µM,0.028
same,viability,[2]; 0.016 µM,1.27
same,viability,[2]; 0.08 µM,1.07
same,viability,[2]; 0.4 µM,0.9
same,viability,[2]; 2 µM,0.457
same,viability,[2]; 10 µM,0.313
same,viability,[3]; 0.016 µM,0.942
same,viability,[3]; 0.08 µM,0.773
same,viability,[3]; 0.4 µM,0.543
same,viability,[3]; 2 µM,0.255
same,viability,[3]; 10 µM,0.0686
same,viability,[4]; 0.016 µM,1.17
same,viability,[4]; 0.08 µM,0.967
same,viability,[4]; 0.4 µM,0.605
same,viability,[4]; 2 µM,0.301
same,viability,[4]; 10 µM,0.181
same,viability,[5]; 0.016 µM,1.04
same,viability,[5]; 0.08 µM,0.882
same,viability,[5]; 0.4 µM,0.579
same,viability,[5]; 2 µM,0.277
same,viability,[5]; 10 µM,0.183
same,viability,[6]; 0.016 µM,1.09
same,viability,[6]; 0.08 µM,0.901
same,viability,[6]; 0.4 µM,0.506
same,viability,[6]; 2 µM,0.275
same,viability,[6]; 10 µM,0.169
same,viability,[7]; 0.016 µM,1.25
same,viability,[7]; 0.08 µM,0.999
same,viability,[7]; 0.4 µM,1.18
same,viability,[7]; 2 µM,0.643
same,viability,[7]; 10 µM,0.455
same,viability,[8]; 0.016 µM,1.05
same,viability,[8]; 0.08 µM,0.976
same,viability,[8]; 0.4 µM,0.937
same,viability,[8]; 2 µM,0.624
same,viability,[8]; 10 µM,0.256
same,viability,[9]; 0.016 µM,1.1
same,viability,[9]; 0.08 µM,1.05
same,viability,[9]; 0.4 µM,1.1
same,viability,[9]; 2 µM,1.02
same,viability,[9]; 10 µM,0.89
same,viability,[10]; 0.016 µM,0.949
same,viability,[10]; 0.08 µM,1.18
same,viability,[10]; 0.4 µM,0.878
same,viability,[10]; 2 µM,0.597
same,viability,[10]; 10 µM,0.401
same,viability,[11]; 0.016 µM,0.958
same,viability,[11]; 0.08 µM,1
same,viability,[11]; 0.4 µM,0.737
same,viability,[11]; 2 µM,0.405
same,viability,[11]; 10 µM,0.361
same,viability,[12]; 0.016 µM,1.12
same,viability,[12]; 0.08 µM,1.11
same,viability,[12]; 0.4 µM,1.04
same,viability,[12]; 2 µM,0.775
same,viability,[12]; 10 µM,0.375
same,viability,[13]; 0.016 µM,1.05
same,viability,[13]; 0.08 µM,1.07
same,viability,[13]; 0.4 µM,0.772
same,viability,[13]; 2 µM,0.373
same,viability,[13]; 10 µM,0.203
same,viability,[14]; 0.016 µM,1.09
same,viability,[14]; 0.08 µM,1.01
same,viability,[14]; 0.4 µM,0.916
same,viability,[14]; 2 µM,0.757
same,viability,[14]; 10 µM,0.504
same,viability,[15]; 0.016 µM,1.01
same,viability,[15]; 0.08 µM,0.961
same,viability,[15]; 0.4 µM,0.804
same,viability,[15]; 2 µM,0.463
same,viability,[15]; 10 µM,0.194
same,viability,[16]; 0.016 µM,1.15
same,viability,[16]; 0.08 µM,1.05
same,viability,[16]; 0.4 µM,0.829
same,viability,[16]; 2 µM,0.288
same,viability,[16]; 10 µM,0.133
same,viability,[17]; 0.016 µM,0.988
same,viability,[17]; 0.08 µM,1.02
same,viability,[17]; 0.4 µM,0.942
same,viability,[17]; 2 µM,0.761
same,viability,[17]; 10 µM,0.373

# From the supplement of paper PMC10733146
